Data as given in US20230271959A1, “HETEROCYCLIC COMPOUND AS BCL-2 INHIBITOR” (Beijing Innocare Pharma Tech Co., Ltd., priority 2020, published 2023).
pIC50: −log10 of the molar value.

How the values were obtained:
[1] = target: T1, human recombinant Bcl-XL protein (Homo sapiens, UniProt Q07817); assay: Fluorescence polarization test for inhibition of BCL-XL binding to FITC-BIM; conditions: 10 nM BCL-XL, 10 nM FITC-BIM, read-out: FP BCL-XL IC50
T1 construct: purchased Beijing Yiqiao Shenzhou Biotechnology Co., Ltd. 10455-H0SE
T1 sequence (Q07817 whole entry): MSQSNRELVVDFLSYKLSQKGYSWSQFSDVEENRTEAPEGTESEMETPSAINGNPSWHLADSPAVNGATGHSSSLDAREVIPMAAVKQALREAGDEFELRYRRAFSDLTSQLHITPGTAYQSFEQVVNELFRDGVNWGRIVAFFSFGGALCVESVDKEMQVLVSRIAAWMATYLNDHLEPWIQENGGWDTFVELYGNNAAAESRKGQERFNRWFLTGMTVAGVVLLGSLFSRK
Procedure: Fluorescence polarization assay was used to evaluate the effect of the compounds of the present invention on the biological activity of BCL-XL.
The effects of the compounds on the biological activity of BCL-XL were evaluated by detecting the effects of the compounds on the binding activity of BCL-XL to BIM using an affinity assay method based on the principle of fluorescence polarization. The reaction buffer contains the following components: PBS (pH 7.4, 3 mM Na2HPO4, 155 mM NaCl, 1 mM KH2PO4), 1 mM DTT; human recombinant Bcl-XL protein (Item No. 10455-H0SE) (purchased from Beijing Yiqiao Shenzhou Biotechnology Co., Ltd.) was diluted to 10 nM with reaction buffer; FITC-labeled BIM polypeptide (purchased from Nanjing GenScript Biotechnology Co., Ltd) was diluted to 10 nM with reaction buffer.
The compounds were dissolved in 100% DMSO and diluted to 1 μM, followed by 4-fold serial dilutions in DMSO to a minimum concentration of 0.061 nM, each concentration point was further diluted 50-fold with reaction buffer.
3 μL of solution containing the compound and 12 μL of solution containing BCL-XL were added to the black 384-well assay plate, mixed well, and incubated at room temperature for 15 minutes. Subsequently, 15 μL of FITC-BIM solution was added, and the reaction mixture was incubated at room temperature for 30 minutes in the dark place, and then the fluorescence polarization was detected immediately on an Envision multi-plate reader (Perkin Elmer), with 480 nm as the excitation wavelength and 535 nm as the emission wavelength. In this experiment, the group without BCL-XL protein was used as a negative control (100% inhibition), and the group with BCL-XL protein but without the compound was added as a positive control (0% inhibition). The inhibition percentage of the compound to the affinity of BCL-XL can be calculated using the following equation: […]
(§1) The IC50 of the compound was calculated from 8 concentration points using XLfit (ID Business Solutions Ltd., UK) software by the following equation:
(§2) Y=Bottom+(Top−Bottom)/(1+10^((log IC50−X)*slope factor))
(§3) where Y is the inhibition percentage, X is the logarithm of the concentration of the compound to be tested, Bottom is the maximum inhibition percentage, Top is the minimum inhibition percentage, and slope factor is the slope coefficient of the curve.

[2] = target: T2, human recombinant Bcl-2 protein (Homo sapiens, UniProt P10415); assay: Fluorescence polarization test for inhibition of BCL-2 binding to FITC-BIM; conditions: 5 nM BCL-2, 5 nM FITC-BIM, read-out: FP BCL-2 IC50
T2 construct: purchased Beijing Yigiao Shenzhou Biotechnology Co., Ltd. 10195-HOSE
T2 sequence (P10415 whole entry): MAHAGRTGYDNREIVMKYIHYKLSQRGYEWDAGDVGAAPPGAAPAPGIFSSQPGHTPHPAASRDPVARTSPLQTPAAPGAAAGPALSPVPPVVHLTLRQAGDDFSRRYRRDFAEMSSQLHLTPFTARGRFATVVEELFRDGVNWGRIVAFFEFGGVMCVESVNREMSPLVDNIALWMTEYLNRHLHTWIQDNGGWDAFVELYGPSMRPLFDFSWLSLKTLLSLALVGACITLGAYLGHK
Procedure: Fluorescence polarization assay was used to evaluate the effect of the compounds of the present invention on the biological activity of BCL-2.
The effects of the compounds on the biological activity of BCL-2 were evaluated by determining the effects of the compounds on the binding activity of BCL-2 to leukemia pro-apoptotic protein (BIM) using an affinity assay method based on the principle of fluorescence polarization. The reaction buffer comprises the following components: PBS (pH 7.4, 3 mM Na2HPO4, 155 mM NaCl, 1 mM KH2PO4), 1 mM DTT; human recombinant Bcl-2 protein (Item No. 10195-HOSE) (purchased from Beijing Yigiao Shenzhou Biotechnology Co., Ltd.) was diluted to 5 nM with the reaction buffer; FITC-labeled BIM polypeptide (purchased from Nanjing GenScript Biotechnology Co., Ltd.) was diluted to 5 nM with the reaction buffer.
The compounds were dissolved in 100% DMSO and diluted to 0.1, 1, 10 μM, followed by 4-fold serial dilutions with DMSO to a minimum concentration of 0.0061, 0.061, 0.61 nM, each concentration point was further diluted 50-fold with the reaction buffer.
3 μL of solution containing the compound and 12 μL of solution containing BCL-2 were added to the black 384-well assay plate, mixed well, and incubated at room temperature for 15 minutes. Subsequently, 15 μL of FITC-BIM solution was added, and the reaction mixture was incubated at room temperature for 30 minutes in dark place, and then the fluorescence polarization was detected immediately on an Envision multi-mode reader (Perkin Elmer), with 480 nm as the excitation wavelength and 535 nm as the emission wavelength. In this experiment, the group without BCL-2 protein was used as a negative control (100% inhibition), and the group with BCL-2 protein but without the compound was used as a positive control (0% inhibition). The inhibition percentage of the compound to the affinity of BCL-2 can be calculated using the following equation: […]
as §1, §2, §3

[3] = tested on: RS4;11 cells (acute lymphoblastic leukemia cells); assay: RS4;11 cell proliferation, CellTilter-Glo luminescence cell viability assay; assay type: cell-based; conditions: CTG readout after 48 hours
Procedure: The effects of the compounds of the present invention on the proliferation of RS4;11 cells were evaluated using a luminescence cell viability assay.
A CellTilter-Glo (CTG) Assay Kit is used to detect ATP, a key indicator of the metabolism of living cells, through a unique, highly sensitive and stable luciferase. The luminescent signal generated in the assay is proportional to the number of the viable cells in the medium, therefore the cell proliferation of RS4;11 can be determined.
CellTilter-Glo reagent (Promega, G7572) is composed of CellTilter-Glo lyophilized powder and CellTilter-Glo buffer, and the lyophilized powder can be dissolved in the buffer for use.
RS4;11 cells (ATCC, CRL-1873) were cultured in RPMI1640 complete medium (Thermofisher, 72400-047) containing 10% FBS (GBICO, 10099-141) and 100 units/ml penicillin-streptomycin solution (Thermofisher, 15140122)), when the cells covered 80-90% in the culture vessel, they were digested and dispersed with 0.25% trypsin (containing EDTA) (Thermofisher, 25200056) and then planted in a white 384-well plate (Thermofisher, 164610), and then the 384-well plate was incubated overnight in a 37° C., 5% CO2 incubator. Compounds were dissolved in 100% DMSO and diluted to […], followed by 4-fold serial dilutions with DMSO to a minimum concentration of 0.061 μM, and each concentration point was further diluted 50-fold with FBS-free RPMI1640 medium. If the IC50 of the compound is very low, the initial concentration of the compound can be reduced. After overnight, 3 μL of the compound diluted in the medium was added to each well, and the mixture was gently centrifuged to mix. The group without cells was used as a negative control (100% inhibition), and the group with 0.2% DMSO was used as a positive control (0% inhibition). The 384-well plate was placed in a 37° C., 5% CO2 incubator for further cultivation. After 48 hours, the plate was taken out and equilibrated to room temperature. 15 μl of CTG reagent was added to each well, the plate was shaken gently for 3 minutes to make sure that the cell lysis was carried out thoroughly, then the plate was kept for 10 minutes to stabilize the luminescence signal, then the luminescence signal was read by EnVision (Perkin Elmer).
The inhibition percentage of the compounds to RS4;11 cell proliferation can be calculated using the following equation:
Inhibition Percentage=100−100*(signal compound-signal negative control)/(signal positive control-signal negative control)
as §1
Y=Bottom+(Top−Bottom)/(1+10^((Log IC50−X)*slope factor))
wherein, Y is the inhibition percentage, Bottom is the bottom plateau of the curve (the bottom plateau value of the S-shaped curve), Top is the top plateau of the curve (the top plateau value of the S-shaped curve), and X is the logarithm of the concentration of the compound to be tested.

| Molecule | pIC50 [1] | pIC50 [2] | pIC50 [3] | pIC50 ([3]; Homo sapiens, RS4-11) |
| --- | --- | --- | --- | --- |
| 2-((1H-Pyrrolo[2,3-b]pyridin-5-yl) oxy)-4-((R)-4-(((S)-4′-chloro-5- methyl-3,4,5,6-tetrahydro-[1,1′-biphenyl]- 2-yl)methyl)-2-methylpiperazn-1- yl)-N-((3-nitro-4-((((S)-4-(3-oxetan yl)morpholin-2-yl)methyl)amino) phenyl)sulfonyl)benzamide [Example 18] | < 6.00 | 8.88 | 8.62 |  |
| C[C@@H]1CN(c2ccc(C(=O)NS(=O)(=O)c3cc(F)c(NCC4CCOCC4)c([N+](=O)[O-])c3)c(Oc3cnc4[nH]ccc4c3)c2)CCN1CC1=C(c2ccc(Cl)cc2)CC(C)(C)CC1 [Example 1, (R)-2-((1H-pyrrolo[2,3-b]pyridin-5-yl)oxy)-4-(4-((4′-chloro-5,5-dimethyl-3,4,5,6-tetrahydro-[1,1′-biphenyl]-2-yl)methyl)-3-methylpiperazin-1-yl)-N-((3-fluoro-5-nitro-4-(((tetrahydro-2H-pyran-4-yl)methyl)amino)phenyl)sulfonyl)benzamide] | < 6.00 | 8.69 |  | 8.33 |
| C[C@@H]1CN(c2ccc(C(=O)NS(=O)(=O)c3ccc(NCC4CCOCC4)c([N+](=O)[O-])c3)c(Oc3cnc4[nH]ccc4c3)c2)CCN1CC1=C(c2ccc(Cl)cc2)CC(C)(C)CC1 [Example 2, (R)-2-((1H-pyrrolo[2,3-b]pyridin-5-yl)oxy)-4-(4-((4′-chloro-5,5-dimethyl-3,4,5,6-tetrahydro-[1,1′-biphenyl]-2-yl)methyl)-3-methylpiperazin-1-yl)-N-((3-nitro-4-(((tetrahydro-2H-pyran-4-yl)methyl)amino)phenyl)sulfonyl) benzamide] | < 6.00 | 8.59 |  | 7.96 |
| C[C@@H]1CN(c2ccc(C(=O)NS(=O)(=O)c3ccc(NCC4CCN(C5COC5)CC4)c([N+](=O)[O-])c3)c(Oc3cnc4[nH]ccc4c3)c2)CCN1CC1=C(c2ccc(Cl)cc2)CC(C)(C)CC1 [Example 3, (R)-2-((1H-pyrrolo[2,3-b]pyridin-5-yl)oxy)-4-(4-((4′-chloro-5,5-dimethyl-3,4,5,6-tetrahydro-[1,1′-biphenyl]-2-yl)methyl)-3-methylpiperazin-1-yl)-N-((3--nitro-4(((1-(3-oxetanyl)piperidin-4-yl)methyl)amino)phenyl)sulfonyl) benzamide] | < 6.00 | 8.51 |  | 8.19 |
| C[C@@H]1CN(c2ccc(C(=O)NS(=O)(=O)c3cc(F)c(NCC4CCN(C5COC5)CC4)c([N+](=O)[O-])c3)c(Oc3cnc4[nH]ccc4c3)c2)CCN1CC1=C(c2ccc(Cl)cc2)CC(C)(C)CC1 [Example 4, (R)-2-((1H-pyrrolo[2,3-b]pyridin-5-yl)oxy)-4-(4-((4′-chloro-5,5-dimethyl-3,4,5,6-tetrahydro-[1,1′-biphenyl]-2-yl)methyl)-3-methylpiperazin-1-yl)-N-((3-fluoro-5-nitro-4-(((1-(3-oxetanyl)piperidin-4-yl)methyl)amino)phenyl)sulfonyl) benzamide] | 6.13 | 8.64 |  | 8.24 |
| C[C@@H]1CN(c2ccc(C(=O)NS(=O)(=O)c3ccc(NC[C@H]4COCCO4)c([N+](=O)[O-])c3)c(Oc3cnc4[nH]ccc4c3)c2)CCN1CC1=C(c2ccc(Cl)cc2)CC(C)(C)CC1 [Example 5, N-((4-((((S)-1,4-dioxan-2-yl)methyl)amino)-3-nitrophenyl)sulfonyl)-2-((1H-pyrrolo[2,3-b]pyridin-5-yl)oxy)-4-((R)-4-((4′-chloro-5,5-dimethyl-3,4,5,6-tetrahydro[1,1′-biphenyl]-2-yl)methyl)-3-methylpiperazin-1-yl) benzamide] | < 6.00 | 8.81 |  | 8.56 |
| C[C@@H]1CN(c2ccc(C(=O)NS(=O)(=O)c3cc(F)c(NC[C@H]4COCCO4)c([N+](=O)[O-])c3)c(Oc3cnc4[nH]ccc4c3)c2)CCN1CC1=C(c2ccc(Cl)cc2)CC(C)(C)CC1 [Example 6, N-((4-((((S)-1,4-dioxan-2-yl)methyl)amino)-3-fluoro-5-nitrophenyl)sulfonyl)-2-((1H-pyrrolo[2,3-b]pyridin-5-yl)oxy)-4-((R)-4-((4′-chloro-5,5-dimethyl-3,4,5,6-tetrahydro-[1,1′-biphenyl]-2-yl)methyl)-3-methylpiperazin-1-yl) benzamide] | < 6.00 | 9.05 |  | 8.63 |
| C[C@H]1CN(c2ccc(C(=O)NS(=O)(=O)c3cc(F)c(NCC4CCOCC4)c([N+](=O)[O-])c3)c(Oc3cnc4[nH]ccc4c3)c2)CCN1CC1=C(c2ccc(Cl)cc2)CC(C)(C)CC1 [Example 7, (S)-2-((1H-pyrrolo[2,3-b]pyridin-5-yl)oxy)-(4-4-((4′-chloro-5,5-dimethyl-3,4,5,6-tetrahydro-[1,1′-biphenyl]-2-yl)methyl)-3-methylpiperazin-1-yl)-N-((3-fluoro-5-nitro-4-(((tetrahydro-2H-pyran-4-yl)methyl)amino)phenyl)sulfonyl) benzamide] | < 6.00 | < 7.00 |  | < 6.30 |
